From article PMC8067507, “Aryl Urea Based Scaffolds for Multitarget Drug Discovery in Anticancer Immunotherapies” (Pharmaceuticals, 2021)

How the values were obtained:
[1] = system: MCF-7 (breast adenocarcinoma); assay: Cell proliferation assay (MTT); format: cell-based; conditions: Homo sapiens, MCF7, 48 h, 2 days incubation, average ± SD of three experiments
PD-L1 [2] = target: T1, PD-L1 (Homo sapiens, UniProt Q9NZQ7); assay: PD-L1 quantification by flow cytometry in HT-29; format: cell-based; conditions: HT-29, 10 μM, 24 h, referred to control (DMSO)
Experimental: (§1) We evaluated the effect of the selected compounds on PD-L1 and on c-Myc proteins by flow cytometry after 24 h treatment at 10 μM concentration of compounds. Both, PD-L1 and c-Myc were relatively determined using DMSO treated cells as a negative control and BMS-8 as a positive one.
(§2) For the detection of total PD-L1 and c-Myc, cancer cells were seeded (3 × 10^5 cells/well) in 6-well plates and were incubated with the corresponding compounds for 24 h. Then they were collected, fixed, treated with 0.5% Triton^TM X-100 and stained with Alexa Fluor® 647 Rabbit monoclonal Anti-PD-L1 (ab215251) and FITC Rabbit monoclonal anti-c-Myc (ab223913).
(§3) We also checked results performing ELISA tests. For ELISA tests, lysates were collected, protein quantification was carried out by Bradford test and, then, PD-L1 and c-Myc were quantified using Human PD-L1 ELISA Kit 28-8 (ab214565) and c-Myc (Total) Human ELISA Kit (KHO2041), respectively, according to the manufacturer’s instructions.

c-Myc = c-Myc quantification by flow cytometry in HT-29; format: cell-based, human; conditions: HT-29, 10 μM, 24 h, referred to control (DMSO)
Experimental: as §1, §2, §3

Jurkat T cells = assay: Jurkat T cell proliferation and population distribution in co-cultures with HT-29; format: cell-based, human; conditions: co-cultured with HT-29, 10 μM, 24 h
From the text: We also determine Jurkat T cell proliferation in those co-cultures from the corresponding media by flow cytometry. […] All samples provided similar population distribution except by those treated with Compound 16, in which an enhancement of size and complexity is observed.
Data provided in Figure 7 show the density of living Jurkat T cells in the treated co-cultures with HT-29. The graphics include cell distribution population by size and complexity in each case.
In 12-well plates, 10^5 HT-29 cells per well were seeded and incubated for 24 h with cell culture medium supplemented with IFN-γ (10 ng/mL; human, Invitrogen®) then medium was change by one containing 4 × 10^5 Jurkat T cells per well and 10 μM of the corresponding compound or DMSO for the control. After 24 h of incubation, supernatants were collected to determine Jurkat T cell living cells and, on the other hand, HT-29 cells were collected with trypsin. Both types of suspension cells were counted with the Neubauer chamber and trypan blue and also by flow cytometry.

PD-L1 [3] = target: T1, PD-L1; assay: PD-L1 quantification by flow cytometry in A-549; format: cell-based; design: endogenous in cells; host or cells: A-549 cancer cells; conditions: A-549, 10 μM, 24 h, referred to control (DMSO)
Experimental: as §1, §2, §3

VEGFR-2 = VEGFR-2 (Homo sapiens, UniProt P35968); assay: VEGFR-2 quantification by flow cytometry in HMEC-1; format: cell-based; design: Both membrane and total VEGFR-2 were relatively determined using dimethyl sulfoxide (DMSO) treated cells as a negative control; endogenous in cells; host or cells: HMEC-1 (human microvascular endothelial cells); conditions: 10 µM, 24 h, relative to DMSO control
Sequence of VEGFR-2 (P35968 20-1356): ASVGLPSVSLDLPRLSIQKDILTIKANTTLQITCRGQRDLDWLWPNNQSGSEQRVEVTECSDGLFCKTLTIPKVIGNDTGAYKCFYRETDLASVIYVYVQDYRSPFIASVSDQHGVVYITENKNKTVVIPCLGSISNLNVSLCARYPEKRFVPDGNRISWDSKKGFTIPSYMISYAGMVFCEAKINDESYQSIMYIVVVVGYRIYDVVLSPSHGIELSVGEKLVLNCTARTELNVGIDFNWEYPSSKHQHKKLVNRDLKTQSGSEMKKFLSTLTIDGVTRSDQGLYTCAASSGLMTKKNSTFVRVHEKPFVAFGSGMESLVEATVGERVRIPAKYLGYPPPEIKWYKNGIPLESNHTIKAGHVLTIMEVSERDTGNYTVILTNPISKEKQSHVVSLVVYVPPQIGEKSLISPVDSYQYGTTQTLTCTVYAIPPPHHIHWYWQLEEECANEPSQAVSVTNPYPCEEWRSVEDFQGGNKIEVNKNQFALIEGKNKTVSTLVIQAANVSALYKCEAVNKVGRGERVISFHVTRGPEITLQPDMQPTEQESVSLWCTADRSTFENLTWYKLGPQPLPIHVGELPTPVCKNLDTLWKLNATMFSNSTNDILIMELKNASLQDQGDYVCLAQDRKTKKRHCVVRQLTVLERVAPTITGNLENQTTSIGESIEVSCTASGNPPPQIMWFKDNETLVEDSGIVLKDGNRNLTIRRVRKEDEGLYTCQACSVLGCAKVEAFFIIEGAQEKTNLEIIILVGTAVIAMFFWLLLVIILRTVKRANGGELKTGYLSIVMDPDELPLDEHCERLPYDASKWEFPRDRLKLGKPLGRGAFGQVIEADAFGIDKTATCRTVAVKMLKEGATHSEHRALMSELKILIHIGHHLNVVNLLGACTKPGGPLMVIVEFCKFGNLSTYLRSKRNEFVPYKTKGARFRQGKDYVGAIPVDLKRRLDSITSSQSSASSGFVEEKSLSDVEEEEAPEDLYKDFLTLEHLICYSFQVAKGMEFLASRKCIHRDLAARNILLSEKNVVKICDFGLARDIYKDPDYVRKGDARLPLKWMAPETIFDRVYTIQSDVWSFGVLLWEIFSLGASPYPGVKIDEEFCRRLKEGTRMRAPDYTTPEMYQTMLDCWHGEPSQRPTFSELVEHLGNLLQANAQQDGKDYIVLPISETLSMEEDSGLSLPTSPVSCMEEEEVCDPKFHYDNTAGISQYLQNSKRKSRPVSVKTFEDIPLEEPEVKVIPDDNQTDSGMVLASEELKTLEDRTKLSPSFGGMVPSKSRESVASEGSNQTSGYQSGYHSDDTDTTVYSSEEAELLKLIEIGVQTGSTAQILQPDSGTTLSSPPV
Experimental: We performed the study on both a HT-29 cancer cell line and a human microvessel endothelial cell line (HMEC-1). […] The effect of these selected derivatives on VEGFR-2, on HT-29 tumor cell line and on human microvessel endothelial cells (HMEC) was determined by flow cytometry technique. […] For these assays, cells were incubated for 24 h in the presence of the corresponding compounds at 10 µM concentration.

T1 sequence (Q9NZQ7 19-290): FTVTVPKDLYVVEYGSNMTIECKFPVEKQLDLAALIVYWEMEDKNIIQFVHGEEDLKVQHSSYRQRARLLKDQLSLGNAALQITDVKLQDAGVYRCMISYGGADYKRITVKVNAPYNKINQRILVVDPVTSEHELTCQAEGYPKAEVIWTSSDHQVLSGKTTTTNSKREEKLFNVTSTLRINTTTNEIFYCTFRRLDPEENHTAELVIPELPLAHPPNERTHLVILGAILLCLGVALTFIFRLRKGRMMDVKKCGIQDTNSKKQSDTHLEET

- IC50 [1]: 24 ± 7 µM
- PD-L1 (%) relative expression (PD-L1 [2]): 17 ± 5%
- PD-L1 (%) relative expression (PD-L1 [3]): 23 ± 8%
- Membrane VEGFR-2 (%) (VEGFR-2): 45 ± 8%
- Total VEGFR-2 (%) (VEGFR-2): 59 ± 5%
Structure (SMILES): COc1ccc(/C=C\c2cccc(NC(=O)Nc3ccc(Br)cc3)c2)cc1 [Compound 16]
- c-Myc (%) relative expression (c-Myc): 41 ± 10%
- effect on Jurkat T cell proliferation (Jurkat T cells): hardly affect proliferation of T cell
- effect on T cell size and complexity (morphology) (Jurkat T cells): an increase on their size and complexity
